Molecular target: T1, YTH domain of YTHDF1 (Homo sapiens, UniProt Q9BYJ9)
T1 sequence (Q9BYJ9 361-559): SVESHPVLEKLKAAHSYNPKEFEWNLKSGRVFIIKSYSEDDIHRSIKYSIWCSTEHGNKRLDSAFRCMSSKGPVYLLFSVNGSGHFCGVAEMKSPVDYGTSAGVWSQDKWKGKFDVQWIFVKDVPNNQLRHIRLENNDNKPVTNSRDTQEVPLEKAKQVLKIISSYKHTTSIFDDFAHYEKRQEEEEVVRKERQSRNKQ
Assay: SPR competition
Type: binding

An IC50 of 13.8 µM was found for `CCCCCNC(=N)N/N=C/c1c[nH]c2ccc(OC)cc12` [tegaserod] in this work.

Source: paper doi:10.1101/2022.10.08.511406v1 (biorxiv, 2022)
